Test results published in patent US9023789B2, “Amylin analogs and pharmaceutical compositions thereof” (Novo Nordisk A/S, priority 2012, dated 2015).
≈ marks a conversion by molar mass, not a printed value. Read-outs that look alike come from different tables or passages of the source. Numbered stars: 1 amine (or outer) side, 2 acyl side, 3 side chain; on linkers, the order of the positions; unused ones are H or OH. Bridge positions count the residues as written; N and C are the ends. Side chains are listed from the residue outwards. Peptide text beside a SMILES is read from it. * marks the point of attachment. C20 diacid = O=C(O)CCCCCCCCCCCCCCCCCCC(=O)*; γGlu = O=C(O)[C@H](CCC(=O)[*:2])N[*:1]; AEEA = NCCOCCOCC(=O)O

Tests used:
[1] = biological target: T1, human amylin receptor (membranes from Amylin 3(a)/CRE-luc cells) (Homo sapiens, UniProt O60896+P30988); assay: ASSAY (V) binding to the human amylin receptor (SPA, 125I-rat amylin);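 also: competition binding of cell membranes (35 ng/µL) mixed with SPA beads in 384-well plates at 40 µL total volume, read by scintillation counting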
T1 construct: expressed in transfected cells
T1 sequence (P30988 25-474): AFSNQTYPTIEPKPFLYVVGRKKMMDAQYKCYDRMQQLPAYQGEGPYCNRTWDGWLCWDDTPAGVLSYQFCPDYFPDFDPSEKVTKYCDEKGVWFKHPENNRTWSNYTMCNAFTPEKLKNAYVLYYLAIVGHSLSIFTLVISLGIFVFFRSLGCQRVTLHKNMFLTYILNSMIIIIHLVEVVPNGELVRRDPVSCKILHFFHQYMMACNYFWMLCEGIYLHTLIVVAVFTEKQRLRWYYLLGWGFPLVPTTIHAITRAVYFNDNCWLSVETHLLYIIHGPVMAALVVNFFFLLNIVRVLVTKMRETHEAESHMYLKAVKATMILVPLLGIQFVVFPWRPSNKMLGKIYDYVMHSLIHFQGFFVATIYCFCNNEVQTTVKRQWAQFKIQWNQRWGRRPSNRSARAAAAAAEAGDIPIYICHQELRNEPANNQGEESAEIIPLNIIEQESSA
T1 sequence (O60896 24-148 partner): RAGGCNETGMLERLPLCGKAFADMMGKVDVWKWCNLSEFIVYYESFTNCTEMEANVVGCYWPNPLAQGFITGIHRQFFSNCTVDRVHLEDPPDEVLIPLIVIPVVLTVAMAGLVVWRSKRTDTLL

[2] = ASSAY (IV) determination of solubility; format: physicochemical
How it was run: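 Solubility measured by UPLC of supernatant after centrifugation, following 18 h at room temperature. Peptide ([…] in water) was diluted 1:1 into 100 mM glycylglycine (pH 3.0, 4.0, 5.0) or bistrispropane (pH 6.0-8.0).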

[3] = biological target: T2, human amylin 3(a) receptor (human calcitonin receptor + RAMP-3) in BHK570 cells (Homo sapiens, UniProt O60896+P30988); assay: ASSAY (II)a functional assay, human amylin receptor (CRE luciferase); format: cell-based
T2 construct: expressed in transfected cells
How it was run: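 Functional agonism was measured by CRE-luciferase reporter luminescence in BHK cells bearing calcitonin receptor, or calcitonin receptor plus RAMP-3 as the amylin 3(a) receptor. Stimulation lasted 3 hours at 37° C.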

[4] = Table 5, selectivity, hCTR bind IC50 / hAmylin-R bind IC50
[5] = Table 5a, selectivity, hCTR bind IC50 / hAmylin-R bind IC50
[6] = Table 5b, selectivity, hCTR bind IC50 / hAmylin-R bind IC50
[7] = Table 5c, selectivity, hCTR bind IC50 / hAmylin-R bind IC50
[8] = Table 7, human binding selectivity, included for comparison
[9] = Table 7a (preferred compounds), human binding selectivity, included for comparison
[10] = ratio of human calcitonin receptor binding IC50 to human amylin receptor binding IC50
[11] = bistrispropane buffer, pH 6.5, read-out: Solubility pH 6.5 Concentration
[12] = bistrispropane buffer, pH 7.5, read-out: Solubility pH 7.5 Concentration
[13] = bistrispropane buffer, pH 6.0, read-out: Solubility pH 6.0 Concentration
[14] = bistrispropane buffer, pH 7.0, read-out: Solubility pH 7.0 Concentration
[15] = bistrispropane buffer, pH 8.0, read-out: Solubility pH 8.0 Concentration
[16] = glycylglycine buffer, pH 3.0, read-out: Solubility pH 3.0 Concentration
[17] = glycylglycine buffer, pH 4.0, read-out: Solubility pH 4.0 Concentration
[18] = glycylglycine buffer, pH 5.0, read-out: Solubility pH 5.0 Concentration
[19] = hCTR funct. EC50 divided by hAmylin-R funct. EC50
[20] = hCTR funct. EC50 over hAmylin-R funct. EC50
[21] = human functional selectivity: hCTR funct. EC50 / hAmylin-R funct. EC50

SMILES	Ratio hCT/hAmylin binding [1, 4]	Ratio hCT/hAmylin binding [1, 5]	Ratio hCT/hAmylin binding [1, 6]	Ratio hCT/hAmylin binding [1, 7]	Ratio hCT/hAmylin binding [1, 8]	Ratio hCT/hAmylin binding [1, 9]	Ratio hCT/hAmylin binding [1, 10]	solubility at 18 h [2, 11]	solubility at 18 h [2, 12]	solubility at 18 h [2, 13]	solubility at 18 h [2, 14]	solubility at 18 h [2, 15]	solubility at 18 h [2, 16]	solubility at 18 h [2, 17]	solubility at 18 h [2, 18]	Ratio hCT/hAmylin funct. [3, 19]	Ratio hCT/hAmylin funct. [3, 20]	Ratio hCT/hAmylin funct. [3, 21]	other results
CC[C@H](C)[C@H](NC(=O)[C@H](C)NC(=O)CNC(=O)[C@H](Cc1ccccc1)NC(=O)[C@H](CC(N)=O)NC(=O)[C@@H]1CCCN1C(=O)[C@H](CO)NC(=O)[C@H](CO)NC(=O)[C@H](Cc1c[nH]cn1)NC(=O)[C@H](CCCNC(=N)N)NC(=O)[C@H](CC(C)C)NC(=O)[C@H](Cc1ccccc1)NC(=O)[C@H](CCCNC(=N)N)NC(=O)[C@H](C)NC(=O)[C@H](CC(C)C)NC(=O)[C@H](CCCNC(=N)N)NC(=O)[C@H](CCC(N)=O)NC(=O)[C@@H](NC(=O)[C@H](C)NC(=O)[C@@H]1CSSC[C@H](NC(=O)[C@@H](N)CCCCNC(=O)CC[C@H](NC(=O)CCCCCCCCCCCCCCCCCCC(=O)O)C(=O)O)C(=O)N[C@@H](CC(N)=O)C(=O)N[C@@H]([C@@H](C)O)C(=O)N[C@@H](C)C(=O)N[C@@H]([C@@H](C)O)C(=O)N1)[C@@H](C)O)C(=O)N1CCC[C@H]1C(=O)N[C@@H](CO)C(=O)N[C@@H](CO)C(=O)N[C@H](C(=O)N1CCC[C@H]1C(=O)N[C@H](C(=O)NCC(=O)N[C@@H](CO)C(=O)N[C@@H](CC(N)=O)C(=O)N[C@H](C(=O)N[C@@H](Cc1ccc(O)cc1)C(N)=O)[C@@H](C)O)C(C)C)[C@@H](C)O [Example 63] (H-K([γGlu-C20 diacid])CNTATCATQRLARFLRHSSPNFGAIPSSTPVGSNTY-NH2; disulfide 2-7 (inferred); N-terminus assumed)	157.1	157.1	157.1	157.1	157.1	157.1	157.1	≥ 200 µM	≥ 200 µM	≥ 200 µM	≥ 200 µM	≥ 200 µM	≥ 200 µM	≥ 200 µM	≥ 200 µM	138.7	138.7	138.7	
CC[C@H](C)[C@H](NC(=O)[C@H](C)NC(=O)CNC(=O)[C@H](Cc1ccccc1)NC(=O)[C@H](CC(N)=O)NC(=O)[C@@H]1CCCN1C(=O)[C@H](CO)NC(=O)[C@H](CO)NC(=O)[C@H](Cc1c[nH]cn1)NC(=O)[C@H](CCCNC(=N)N)NC(=O)[C@H](CC(C)C)NC(=O)[C@H](Cc1ccccc1)NC(=O)CNC(=O)[C@H](C)NC(=O)[C@H](CC(C)C)NC(=O)[C@H](CCCNC(=N)N)NC(=O)[C@H](CCC(N)=O)NC(=O)[C@@H](NC(=O)[C@H](C)NC(=O)[C@@H]1CSSC[C@H](NC(=O)[C@@H](N)CCCCNC(=O)COCCOCCNC(=O)CC[C@H](NC(=O)CCCCCCCCCCCCCCCCCCC(=O)O)C(=O)O)C(=O)N[C@@H](CC(N)=O)C(=O)N[C@@H]([C@@H](C)O)C(=O)N[C@@H](C)C(=O)N[C@@H]([C@@H](C)O)C(=O)N1)[C@@H](C)O)C(=O)N1CCC[C@H]1C(=O)N[C@@H](CO)C(=O)N[C@@H](CO)C(=O)N[C@H](C(=O)N1CCC[C@H]1C(=O)N[C@H](C(=O)NCC(=O)N[C@@H](CO)C(=O)N[C@@H](CC(N)=O)C(=O)N[C@H](C(=O)N[C@@H](Cc1ccc(O)cc1)C(N)=O)[C@@H](C)O)C(C)C)[C@@H](C)O [Example 71] (H-K([AEEA-γGlu-C20 diacid])CNTATCATQRLAGFLRHSSPNFGAIPSSTPVGSNTY-NH2; disulfide 2-7)	32.0	32.0	32.0	32.0	32.0	32.0	32.0	≥ 200 µM	≥ 200 µM	≥ 200 µM	≥ 200 µM	≥ 200 µM	≥ 200 µM	≥ 200 µM	≥ 200 µM	9.4		9.4	
CC[C@H](C)[C@H](NC(=O)[C@H](C)NC(=O)CNC(=O)[C@H](Cc1ccccc1)NC(=O)[C@H](CC(N)=O)NC(=O)[C@@H]1CCCN1C(=O)[C@H](CO)NC(=O)[C@H](CO)NC(=O)[C@H](Cc1c[nH]cn1)NC(=O)[C@H](CCCNC(=N)N)NC(=O)[C@H](CC(C)C)NC(=O)[C@H](Cc1ccccc1)NC(=O)[C@H](CO)NC(=O)[C@H](C)NC(=O)[C@H](CC(C)C)NC(=O)[C@H](CCCNC(=N)N)NC(=O)[C@H](CCC(N)=O)NC(=O)[C@@H](NC(=O)[C@H](C)NC(=O)[C@@H]1CSSC[C@H](NC(=O)[C@@H](N)CCCCNC(=O)COCCOCCNC(=O)CC[C@H](NC(=O)CCCCCCCCCCCCCCCCCCC(=O)O)C(=O)O)C(=O)N[C@@H](CC(N)=O)C(=O)N[C@@H]([C@@H](C)O)C(=O)N[C@@H](C)C(=O)N[C@@H]([C@@H](C)O)C(=O)N1)[C@@H](C)O)C(=O)N1CCC[C@H]1C(=O)N[C@@H](CO)C(=O)N[C@@H](CO)C(=O)N[C@H](C(=O)N1CCC[C@H]1C(=O)N[C@H](C(=O)NCC(=O)N[C@@H](CO)C(=O)N[C@@H](CC(N)=O)C(=O)N[C@H](C(=O)N[C@@H](Cc1ccc(O)cc1)C(N)=O)[C@@H](C)O)C(C)C)[C@@H](C)O [Example 73] (H-K([AEEA-γGlu-C20 diacid])CNTATCATQRLASFLRHSSPNFGAIPSSTPVGSNTY-NH2; disulfide 2-7 (inferred))	51.7	51.7	51.7	51.7	51.7	51.7	51.7									11.3	11.3	11.3	solubility at 18 h ([2]; pH 3.0, read-out: Solubility pH 3.0 Concentration): ≥ 200 µM; solubility at 18 h ([2]; pH 4.0, read-out: Solubility pH 4.0 Concentration): ≥ 200 µM; solubility at 18 h ([2]; pH 5.0, read-out: Solubility pH 5.0 Concentration): ≥ 200 µM; solubility at 18 h ([2]; pH 6.0, read-out: Solubility pH 6.0 Concentration): ≥ 200 µM; solubility at 18 h ([2]; pH 6.5, read-out: Solubility pH 6.5 Concentration): ≥ 200 µM; solubility at 18 h ([2]; pH 7.0, read-out: Solubility pH 7.0 Concentration): ≥ 200 µM; solubility at 18 h ([2]; pH 7.5, read-out: Solubility pH 7.5 Concentration): ≥ 200 µM; solubility at 18 h ([2]; pH 8.0, read-out: Solubility pH 8.0 Concentration): 172 µM (≈ 771 µg/mL)
CC[C@H](C)[C@H](NC(=O)[C@H](C)NC(=O)CNC(=O)[C@H](Cc1ccccc1)NC(=O)[C@H](CC(N)=O)NC(=O)[C@@H]1CCCN1C(=O)[C@H](CO)NC(=O)[C@H](CO)NC(=O)[C@H](Cc1c[nH]cn1)NC(=O)[C@H](CCCNC(=N)N)NC(=O)[C@H](CC(C)C)NC(=O)[C@H](Cc1ccccc1)NC(=O)[C@H](CCCNC(=N)N)NC(=O)[C@H](C)NC(=O)[C@H](CC(C)C)NC(=O)[C@H](CCCNC(=N)N)NC(=O)[C@H](CCC(N)=O)NC(=O)[C@@H](NC(=O)[C@H](C)NC(=O)[C@@H]1CSSC[C@H](NC(=O)[C@@H](N)CCCCNC(=O)CC[C@H](NC(=O)CCCCCCCCCCCCCCCCCCC(=O)O)C(=O)O)C(=O)N[C@@H](CC(N)=O)C(=O)N[C@@H]([C@@H](C)O)C(=O)N[C@@H](C)C(=O)N[C@@H]([C@@H](C)O)C(=O)N1)[C@@H](C)O)C(=O)N1CCC[C@H]1C(=O)N[C@@H](CO)C(=O)N[C@@H](CO)C(=O)N[C@H](C(=O)N[C@@H](CC(N)=O)C(=O)N[C@H](C(=O)NCC(=O)N[C@@H](CO)C(=O)N[C@@H](CC(N)=O)C(=O)N[C@H](C(=O)N[C@@H](Cc1ccc(O)cc1)C(N)=O)[C@@H](C)O)C(C)C)[C@@H](C)O [Example 83]	145.6	145.6	145.6	145.6	145.6	145.6	145.6	≥ 200 µM	≥ 200 µM	≥ 200 µM	≥ 200 µM	≥ 200 µM	≥ 200 µM	≥ 200 µM	≥ 200 µM	41.6	41.6	41.6	
